Legend:
[1] = system: blood coagulation (aPTT, PT, ACT); test: Phase I single IV bolus study: coagulation tests (aPTT, PT, ACT); format: in vivo, human
Method: A study was performed in 38 volunteer human subjects to assess the safety of escalating bolus doses of 2-O, 3-O desulfated heparin (ODSH). The study was a Phase I, randomized, double-blind, dose-escalation study with a single-day treatment period. Subjects were between the ages of 18 and 45, were not pregnant, and were normal in body weight. They all had normal coagulation function and hemoglobin values at baseline.
Two subjects also received an injection of fully anticoagulated unfractionated heparin for comparison. ODSH dose groups were run in a series, and safety and tolerance data were evaluated prior to the start of the next dose level (4, 8 12, 16 and 20 mg/kg bolus intravenous doses). Twenty eight (28) subjects randomly received ODSH and 9 subjects were randomized to receive placebo, with an additional two subjects receiving commercially available unfractionated heparin.
For each bolus dose, ODSH as a 50 mg/mL formulation was diluted with normal saline and a total volume of 50 ml was infused over 15 minutes containing the calculated amount of ODSH the subject was to receive. Placebo consisted of 50 mL of normal saline infused over 15 minutes. For subjects receiving heparin, 5,000 units (approximately 0.5 mg/kg) of heparin was diluted into 50 ml of normal saline and infused over 15 minutes.
Immediately before infusion and beginning 7 minutes after the start of each infusion, blood was drawn at periodic times for 24 hours to monitor the effect of infusion on the following laboratory studies: activated partial thromboplastin time (aPTT); prothrombin time (PT); activated clotting time (ACT); and ODSH plasma level. Serum chemistries and a complete blood count were checked immediately before infusion and at eight (8) and twenty-four (24) hours later. Using values for aPTT and ODSH levels, pharmacokinetic parameters were calculated by noncompartmental methods using a commercial software program (PhAST 2.3-001). […]

[2] = system: activated clotting time (ACT); test: Porcine ischemia/reperfusion model: activated clotting time (ACT); format: in vivo, pig; conditions: for ACT group difference versus control: 90 and 180 min after
Excerpt: Arterial access was achieved via bilateral femoral artery cut-downs for the insertion of 8F sheaths. Central venous and carotid access was achieved via a neck incision to expose the external jugular vein and common carotid artery. Animals were then anticoagulated with 50 U/kg of unfractionated heparin to maintain an activated clotting time (ACT) between 250-350 seconds, prior to ischemia. A 7-8 Fr pigtail catheter was placed in the left ventricular cavity to measure pressure and for injection of […] microspheres. Angiography was performed to define coronary anatomy and measure the diameter of the left anterior descending coronary artery (LAD) at the point of intended balloon occlusion. A coronary sinus catheter was placed via the external jugular vein under fluoroscopic guidance for coronary venous sampling. Baseline cardiodynamic and hemodynamic data were measured using a solid state transducer-tipped catheter in the left ventricle (Millar Instruments, Houston, Tex.) to measure left ventricular pressure, and a fluid-filled transducer connected to the side port of the femoral artery sheath to measure peripheral arterial pressure. Approximately 3-4 million neutron-activated microspheres (BioPhysics Assay Laboratory, Inc, Worcester, Ma) (15 μm) were delivered through a pig-tail catheter into the left ventricle over a 30 second period, to quantify regional myocardial blood flow (RMBF). Simultaneously with injection, a reference sample was withdrawn at a rate of 7 cc/min from the femoral artery sheath, for 90 seconds during and after injection of microspheres. A contrast ventriculogram (60° right anterior oblique) was obtained to assess global and regional myocardial function at baseline. […] Balloon occlusion time was 75 minutes with coronary occlusion confirmed by contrast angiography, ST segment changes on electrocardiography, and quantitatively confirmed by microspheres delivered at the end of ischemia, as described above. […] At the end of 180 minutes of reperfusion, animals were euthanized with an IV injection of pentobarbital sodium (100 mg/kg) and the heart was excised to quantify the area at risk, infarct size, regional myocardial blood flow, and myeloperoxidase activity. Hemodynamic data (left ventricular and arterial blood pressure) and derived variables were recorded continuously using 10× and Datanalyst software (EMKA Technologies, Falls Church, Va.).
Blood anticoagulation was measured by following the ACT, determined using the Hemochron whole blood coagulating system (Hemochron, Edison, N.J.) and measured 10 minutes after delivery of 50 U/kg of unfractionated heparin after the insertion of arterial sheaths. […]

[3] = system: pigs, 75 min LAD balloon occlusion and 3 h reperfusion; test: Porcine ischemia/reperfusion model: global ejection fraction by contrast ventriculography; format: in vivo, pig; conditions: for Global Ejection Fraction, Baseline: before ischemia and dosing; for Global Ejection Fraction, 180 Minutes after End of Ischemia: control 34 ± 3
Excerpt: Arterial access was achieved via bilateral femoral artery cut-downs for the insertion of 8F sheaths. Central venous and carotid access was achieved via a neck incision to expose the external jugular vein and common carotid artery. Animals were then anticoagulated with 50 U/kg of unfractionated heparin to maintain an activated clotting time (ACT) between 250-350 seconds, prior to ischemia. A 7-8 Fr pigtail catheter was placed in the left ventricular cavity to measure pressure and for injection of […] microspheres. Angiography was performed to define coronary anatomy and measure the diameter of the left anterior descending coronary artery (LAD) at the point of intended balloon occlusion. A coronary sinus catheter was placed via the external jugular vein under fluoroscopic guidance for coronary venous sampling. Baseline cardiodynamic and hemodynamic data were measured using a solid state transducer-tipped catheter in the left ventricle (Millar Instruments, Houston, Tex.) to measure left ventricular pressure, and a fluid-filled transducer connected to the side port of the femoral artery sheath to measure peripheral arterial pressure. Approximately 3-4 million neutron-activated microspheres (BioPhysics Assay Laboratory, Inc, Worcester, Ma) (15 μm) were delivered through a pig-tail catheter into the left ventricle over a 30 second period, to quantify regional myocardial blood flow (RMBF). Simultaneously with injection, a reference sample was withdrawn at a rate of 7 cc/min from the femoral artery sheath, for 90 seconds during and after injection of microspheres. A contrast ventriculogram (60° right anterior oblique) was obtained to assess global and regional myocardial function at baseline. An angioplasty balloon catheter sized to exceed ambient diameter by 1 mm (range chosen was 3.0-4.0 mm) was then inserted into the proximal LAD, after the first diagonal branch. […] In addition, 2% lidocaine (4-8 ml total) was administered during ischemia, as needed, to attenuate ventricular arrhythmias. Balloon occlusion time was 75 minutes with coronary occlusion confirmed by contrast angiography, ST segment changes on electrocardiography, and quantitatively confirmed by microspheres delivered at the end of ischemia, as described above. Episodes of ventricular fibrillation were immediately treated with electrical cardioversion delivered at 200 Joules. During the ischemic period, animals were randomly assigned to receive either saline vehicle or 2-O, 3-O desulfated heparin (ODSH) at a dose of 5 mg/kg, 15 mg/kg, or 45 mg/kg as an IV bolus at 2 minutes prior to deflation of the balloon (pharmacological postconditioning), and repeated at 90 minutes of reperfusion. Following deflation of the angioplasty balloon, animals underwent 3 hours of further reperfusion and observation. Microspheres were again injected to measure myocardial blood flow at 15 minutes of reperfusion and again at 180 minutes of reperfusion. At the end of 180 minutes of reperfusion, animals were euthanized with an IV injection of pentobarbital sodium (100 mg/kg) and the heart was excised to quantify the area at risk, infarct size, regional myocardial blood flow, and myeloperoxidase activity. Hemodynamic data (left ventricular and arterial blood pressure) and derived variables were recorded continuously using 10× and Datanalyst software (EMKA Technologies, Falls Church, Va.).
Left ventricular contrast angiography was performed at baseline, ischemia, and 180 minutes after relief of ischemia. Contrast (Hypaque, approximately 50 mL) was rapidly injected via a pigtail catheter using a power injector. Left ventricular ejection fraction (LVEF) and regional function of the antero-lateral wall was calculated using the area-length method, which outlined the ventricle at the end of systole and diastole. LVEF and regional function were analyzed independently by 2 blinded observers.

anti-Xa = conditions: product of the procedure of U.S. Pat. No. 5,990,097; cited from earlier work

2-O, 3-O desulfated heparin [ODSH]
PT ([1]; IV bolus 4 to 20 mg/kg): increased in a dose-dependent manner | change from baseline in aPTT ([1]; IV bolus 4 to 20 mg/kg, FIG. 16): rapid increase in aPTT over the infusion period in a dose-dependent fashion | mean ACT value at 15 minutes ([1]; ODSH 20 mg/kg IV bolus): 207 s | change from baseline in ACT ([1]; bolus doses of 12-20 mg/kg, FIG. 17): Therapeutic increases in the ACT | elevation above control in ACT ([2]; 15 mg/kg dose group): approximately 200 seconds | ACT group difference versus control ([2]; ODS 5 mg/kg, end ischemia): no significant differences in ACT | ACT group difference versus control ([2]; ODS 15 mg/kg, end ischemia): no significant differences in ACT | ACT compared to the other groups ([2]; ODS 45 mg/kg, end ischemia, 90 and 180 min after end of ischemia, on 50 U/kg UFH background): significantly higher | Global Ejection Fraction, Ischemia ([3]; ODS 15 mg/kg (second line, r8)): 23 ± 3% | Global Ejection Fraction, Baseline ([3]; ODS 15 mg/kg (second line, r8)): 57 ± 4% | Global Ejection Fraction, 180 Minutes after End of Ischemia ([3]; ODS 15 mg/kg (second line, r8)): 42 ± 4% | Global Ejection Fraction, Ischemia ([3]; ODS 45 mg/kg): 30 ± 3% | Global Ejection Fraction, Baseline ([3]; ODS 45 mg/kg): 60 ± 2% | Global Ejection Fraction, 180 Minutes after End of Ischemia ([3]; ODS 45 mg/kg): 38 ± 6% | ejection fraction at 3 hours after the end of ischemia versus control ([3]; ODS-treated animals, all doses): tended to be higher | Global Ejection Fraction, Baseline ([3]; line printed ODS 15 mg/kg (first of two, r7), control 52 ± 2): 61 ± 2% | Global Ejection Fraction, Ischemia ([3]; line printed ODS 15 mg/kg (first of two, r7), control 25 ± 2): 30 ± 3% | Global Ejection Fraction, 180 Minutes after End of Ischemia ([3]; line printed ODS 15 mg/kg (first of two, r7)): 42 ± 5% | anti-Xa anti-coagulant activity (anti-Xa): less than 10 U/mg

Source: patent US20090238852A1, “METHODS FOR CONTROLLING INTRACELLULAR CALCIUM LEVELS ASSOCIATED WITH AN ISCHEMIC EVENT” (University of Utah Research Foundation, priority 2008, published 2009)
